Reference: PMC12089509, “NorA Efflux Pump Inhibitors: Expanding SAR Knowledge of Pyrazolo[4,3‐c][1,2]benzothiazine 5,5‐Dioxide Derivatives” (Archiv Der Pharmazie, 2025)
Values after ≈ are worked out from the molar mass of the structure shown. Like-named read-outs stand apart in the source and are kept apart here.

How the values were obtained:
[1] = test system: Staphylococcus aureus SA-1199B; assay type: cell-based
From the text: For purposes of comparison, compound 1 was included as a reference.

[2] = MTT cytotoxicity assay on MCF7; assay type: cell-based; settings: human, MCF7 cells; for viability at 72 h, 12.5 µg/mL: MCF7, 12.5 μg/mL; for viability at 72 h, 12.5 µg/mL / viability at 72 h, 25 µg/mL / viability at 72 h, 50 µg/mL / viability at 72 h, 100 µg/mL: read-out: Cytotoxicity (% cell viability); for viability at 72 h, 25 µg/mL: MCF7, 25 μg/mL; for viability at 72 h, 50 µg/mL: MCF7, 50 μg/mL; for viability at 72 h, 100 µg/mL: MCF7, 100 μg/mL; for CC50 at 72 h: MCF7, MTT
Method: The MTT assay was performed on two human ATCC cell lines, that is, […] (CCL‐185) and MCF7 (HTB‐22), to test the potential cytotoxic effect of the compounds, after 72 h exposure, as previously described. Each compound was tested at concentrations ranging from 12.5 to 100 μg/mL. Untreated cells were considered as controls. The percentage of viable cells was calculated as follows: % Cell viability = 100 × treated well absorbance/untreated control well absorbance. All assays were performed once in technical quadruplicate.

[3] = test system: Staphylococcus aureus SA-K2378 biofilm; assay type: cell-based; settings: for Biofilm formation (%): CPX 1/4 X MIC + EPI 1,6 µg/ml; for reduction in biofilm formation: EPI at 1.6 µg/mL with CPX at ½ MIC, vs untreated control
From the text: The formation of biofilms is a significant contributor to the development of AMR [1, 26, 27]. This is due to the fact that biofilms provide a protective environment for bacteria, thereby rendering them more resilient to the effects of common antibacterial agents. Over the years, several investigations have been conducted to study the role of EPs in the various stages of microbial biofilm formation. However, a definitive answer regarding the potential role of EPs in this microbial pathway remains elusive. While some studies have reported a negative effect of certain EPs on biofilm formation, others have highlighted the promising role of EPIs in limiting biofilm formation and enhancing the efficacy of antibiotics under biofilm conditions.
The biofilm production by SA‐K1902 and SA‐K2378 strains was analyzed in flat 96‐well microtiter plates as previously described, with some modifications. […] The microplates were incubated at 37°C for 24 h in static conditions. After incubation, the biofilms were washed three times with distilled water, dried at 60°C for 1 h, and stained with 0,1% crystal violet for 10 min. After staining, the crystal violet was removed and the wells were washed three times with water, dried at 37°C for 30 min, and the bound crystal violet was solubilized with 96% ethanol in shaking conditions. At the end of the destaining, the absorbance (570 nm) of the solutions in each well was measured using the FLUOstar Omega plate reader (BMG‐LABTECH, Germany) to quantify the biofilm produced in each condition compared with the control (biofilm produced by the strain without any compound/antibiotic). Biofilm assays were performed in triplicate for each condition.

[4] = test system: Staphylococcus aureus SA-1199B; test: MIC determination (broth microdilution) against SA-1199B; assay type: cell-based; settings: SA1199B
From the text: (§1) In this study, the S. aureus strains SA‐1199B (overexpressing norA) and its isogenic parent SA‐1199 (wild type), the pair SA‐K1902 (norA‐depleted) and SA‐K2378 (complemented with a pCU1 plasmid harboring the norA promoting and coding region from SA‐1199B), were used to test EPI activity as described in a previous study. Furthermore, the S. aureus ATCC 29213 was used as the reference strain in MIC determination experiments.

[5] = molecular target: T1, S. aureus NorA efflux pump (SA-1199B strain, overexpresses the norA gene) (Staphylococcus aureus, UniProt P0A0J7); test: EtBr efflux inhibition assay; assay type: cell-based; settings: for inhibition at 50 µM: read-out: EtBr efflux inhibition (%), compound at 50 µM, SA-1199B
T1 construct: endogenous in cells; host or cells: S. aureus SA-1199B (overexpresses norA; isogenic parent SA-1199)
T1 sequence (P0A0J7 whole entry): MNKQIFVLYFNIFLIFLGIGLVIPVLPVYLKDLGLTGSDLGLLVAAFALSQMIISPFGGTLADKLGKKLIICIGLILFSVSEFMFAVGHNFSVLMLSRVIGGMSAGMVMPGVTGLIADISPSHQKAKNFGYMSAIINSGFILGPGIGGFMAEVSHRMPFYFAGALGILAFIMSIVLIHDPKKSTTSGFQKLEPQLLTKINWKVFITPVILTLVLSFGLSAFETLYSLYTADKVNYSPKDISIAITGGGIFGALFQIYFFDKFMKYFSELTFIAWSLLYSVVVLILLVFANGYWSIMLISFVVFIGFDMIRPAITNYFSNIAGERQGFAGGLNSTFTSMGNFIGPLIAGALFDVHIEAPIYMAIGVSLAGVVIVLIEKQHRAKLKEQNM
Method: EtBr efflux inhibition assays were conducted using the S. aureus SA‐1199B strain, which overexpresses the norA gene and has an A116E GrlA substitution. Each compound was tested at 50 µM (see Figure 2). The starting hit compound 1 was used as the internal standard for comparison with the previously reported data.
The cells were grown overnight in cation‐supplemented Mueller–Hinton broth (CAMHB) without any additives at 35°C. The organisms were subsequently diluted into CAMHB to obtain an optical density at 600 nm (OD600) of 0.7–0.8. Subsequently, the cells were pelleted and resuspended at an OD600 of 0.8 in 0.5 mL aliquots of CAMHB containing EtBr and carbonyl cyanide m‐chlorophenylhydrazone (CCCP) to “load” the cells with EtBr (final concentrations of 25 μM for EtBr and 100 μM for CCCP). Following 20 min of incubation at room temperature, the cells were pelleted and resuspended in 1 mL of fresh CAMHB. Immediately thereafter, 200 μL aliquots were transferred into the wells of white 96‐well plates, which either lacked or contained 50 or 10 μM of each test compound. Fluorescence was monitored continuously using a microplate reader (Infinite M200 Pro, TECAN) at excitation and emission wavelengths of 485 and 645 nm, respectively, for a period of 5 min. The experiments were conducted in triplicate, with two technical replicates per biological replicate. The efflux activity of the SA‐1199B strain was expressed as a percentage of fluorescence decrease over a 5‐min time course. The inhibition of this efflux by the test compounds was determined using the following equation: ([efflux in the absence] ‐ [efflux in the presence of test [compound])/[efflux in the absence of test compound] × 100, which yielded the percent efflux inhibition observed.
^a Experiments were performed in triplicate with two technical replicates per biological replicate. Efflux activity of SA-1199B was expressed as percent fluorescence decrease over a 5 min time course. Inhibition of this efflux by test compounds was determined using the equation [efflux in the absence] − [efflux in the presence of test [compound]/[efflux in the absence of test compound] × 100, giving the percent efflux inhibition observed.

[6] = test system: S. aureus SA-K1902 (norA-); test: Checkerboard assay EPI/CPX against SA-K1902; assay type: cell-based, Staphylococcus aureus
Method: Checkerboard assays were carried out using SA‐K1902 and SA‐K2378 strains according to standard procedures.

[7] = test system: S. aureus SA-K2378 (norA ++); test: MIC evaluation against SA-K2378; assay type: cell-based, Staphylococcus aureus; settings: Staphylococcus aureus
From the text: Conversely, interesting results were obtained against SA‐K2378, which overexpresses the norA gene (Table 2). […] This corroborates the hypothesis that their activity is strictly related to NorA EP inhibition.
as §1

[8] = test system: S. aureus SA-1199 (wild type); test: MIC determination against wild-type SA-1199; assay type: cell-based; settings: Staphylococcus aureus, compound alone
From the text: This finding aligns with their mechanism of action, which involves the inhibition of NorA, which is only basally expressed in the wild‐type SA‐1199 strain.

Structure (SMILES)	viability at 72 h, 12.5 µg/mL [2]	viability at 72 h, 25 µg/mL [2]	viability at 72 h, 50 µg/mL [2]	viability at 72 h, 100 µg/mL [2]	CC50 at 72 h [2]	Biofilm formation (%) [3]	reduction in biofilm formation [3]	MIC [4]	inhibition at 50 µM [5]	CPX MIC ([6]; EPI at 0.2 µg/mL)	N° CPX MIC reduction ([6]; EPI at 0.2 µg/mL)	CPX MIC ([6]; EPI at 0.4 µg/mL)	N° CPX MIC reduction ([6]; EPI at 0.4 µg/mL)	CPX MIC ([6]; EPI at 0.8 µg/mL)	N° CPX MIC reduction ([6]; EPI at 0.8 µg/mL)	CPX MIC ([6]; EPI at 1.6 µg/mL)	N° CPX MIC reduction ([6]; EPI at 1.6 µg/mL)	CPX MIC ([6]; EPI at 3.13 µg/mL)	N° CPX MIC reduction ([6]; EPI at 3.13 µg/mL)	MIC [7]	further results
O=S1(=O)Nc2c(-c3ccc(Cl)cc3)nn(-c3ccccc3)c2-c2ccccc21 [Compound 3]	97 ± 10%	84 ± 4%	88 ± 4%	66 ± 7%	> 100 µg/mL	positive synergistic effect	83%	25 µg/mL (≈ 61.3 µM)	7%	0.08 µg/mL	2	0.08 µg/mL	2	0.08 µg/mL	2	0.08 µg/mL	2	0.08 µg/mL	2	25 µg/mL (≈ 61.3 µM)	N° fold CPX MIC reduction ([1]; EPI at 3.12 µg/mL): 2 fold; CPX MIC ([6]; EPI at 6.25 µg/mL): 0.08 µg/mL; N° CPX MIC reduction ([6]; EPI at 6.25 µg/mL): 2; CPX MIC ([6]; EPI at 12.5 µg/mL): 0.08 µg/mL; N° CPX MIC reduction ([6]; EPI at 12.5 µg/mL): 2; MIC [8]: > 50 µg/mL
CN1c2c(-c3ccc(Cl)cc3)n[nH]c2-c2ccccc2S1(=O)=O [Compound 10, 3‐(4‐Chlorophenyl)‐4‐methyl‐1,4‐dihydropyrazolo[4,3‐c][1,2]benzothiazine 5,5‐dioxide]	66 ± 5%	26 ± 2%	7 ± 1%	6%	~25 µg/mL (≈ 72.3 µM)	untreated control‐like condition	54%	> 50 µg/mL	100%	0.08 µg/mL	2	0.08 µg/mL	2	0.08 µg/mL	2	0.08 µg/mL	2	0.08 µg/mL	2	12.5 µg/mL (≈ 36.1 µM)	N° fold CPX MIC reduction ([1]; EPI at 12.5 µg/mL): 4 fold; inhibition at 10 µM ([5]; read-out: EtBr efflux inhibition (%), compound at 10 µM, SA-1199B): 95%; MIC [8]: > 50 µg/mL
